Experimental data taken from patent US8685970B2, “Quinolines and related analogs as sirtuin modulators” (GlaxoSmithKline, LLC, priority 2008, dated 2014).

Biological target: T1, SIRT1 (Homo sapiens, UniProt Q96EB6)
T1 sequence (Q96EB6 1-747): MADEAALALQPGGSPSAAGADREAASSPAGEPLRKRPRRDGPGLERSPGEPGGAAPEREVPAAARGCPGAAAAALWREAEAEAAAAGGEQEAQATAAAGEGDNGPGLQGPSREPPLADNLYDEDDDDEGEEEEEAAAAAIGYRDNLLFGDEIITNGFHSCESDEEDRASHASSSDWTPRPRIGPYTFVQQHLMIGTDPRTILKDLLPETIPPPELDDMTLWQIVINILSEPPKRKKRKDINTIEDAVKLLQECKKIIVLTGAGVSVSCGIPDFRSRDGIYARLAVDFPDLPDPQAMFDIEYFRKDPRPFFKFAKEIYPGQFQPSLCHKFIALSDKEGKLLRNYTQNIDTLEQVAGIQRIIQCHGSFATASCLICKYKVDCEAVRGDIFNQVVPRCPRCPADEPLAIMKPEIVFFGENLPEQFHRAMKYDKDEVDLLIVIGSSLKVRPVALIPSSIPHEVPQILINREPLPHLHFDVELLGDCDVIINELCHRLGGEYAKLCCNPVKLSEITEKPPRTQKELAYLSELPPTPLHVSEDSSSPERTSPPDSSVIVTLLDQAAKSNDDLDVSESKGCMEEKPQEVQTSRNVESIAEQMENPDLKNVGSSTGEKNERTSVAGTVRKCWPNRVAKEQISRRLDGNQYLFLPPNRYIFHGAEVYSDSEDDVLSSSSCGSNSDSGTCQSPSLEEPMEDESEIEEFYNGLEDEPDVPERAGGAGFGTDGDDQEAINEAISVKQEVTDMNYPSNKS
Experiment: Mass spectrometry based SIRT1 deacetylation assay (activation)
Type: biochemical
Settings: 10 nM SIRT1, 0.5 μM peptide substrate, 120 μM βNAD+, 25 min at 25° C.
Procedure, shortened: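 Activation reported as EC1.5, the compound concentration producing 150% of DMSO-control deacetylation, plus maximum fold activation. Readout is mass-spectrometric ratio of deacetylated to acetylated p53-based peptide (0.5 μM) after 25 min, 25 °C, with 120 μM βNAD+ and 10 nM His-tagged human SIRT1, pH 8.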

% Fold Act. (percent maximum fold activation) | EC1.5 (concentration of test compound that results in 150% activation of SIRT1) | Structure (SMILES)
B (Fold Activation <200%) | B (EC1.5 1-25 uM) | O=C(Nc1nccs1)c1cccc2cnc(-c3cccc(N4CCOCC4)c3)nc12 [Compound 299]
A (Fold activation >200%) | A (EC1.5<1.0 uM) | O=C(Nc1ccc(CN2CCOCC2)cc1)c1cccc2ccc(-c3cccc(C(F)F)c3)nc12 [Compound 303]
A (Fold activation >200%) | A (EC1.5<1.0 uM) | O=C(Nc1nccs1)c1cccc2ccc(-c3ccnc(C(F)F)c3)nc12 [Compound 304]
 | C (EC1.5>25 uM) | Cc1cnc(NC(=O)c2cccc3ccc(-c4ccnc(C(F)F)c4)nc23)s1 [Compound 307]
A (Fold activation >200%) | B (EC1.5 1-25 uM) | O=C(Nc1ncnc2ccc(-c3cccc(C(F)(F)F)c3)nc12)c1ccc(CN2CCCC2)cc1 [Compound 312]
B (Fold Activation <200%) | A (EC1.5<1.0 uM) | O=C(Nc1cccnc1)c1cccc2cnc(-c3cccc(N4CCOCC4)c3)nc12 [Compound 314]
A (Fold activation >200%) | A (EC1.5<1.0 uM) | O=C(Nc1ccccn1)c1cccc2cnc(-c3cccc(N4CCOCC4)c3)nc12 [Compound 315]
A (Fold activation >200%) | A (EC1.5<1.0 uM) | O=C(Nc1cccc(CN2CCCC2)c1)c1cccc2ccc(-c3cccc(C(F)F)c3)nc12 [Compound 316]
A (Fold activation >200%) | A (EC1.5<1.0 uM) | O=C(Nc1cccc(N2CCCC2)n1)c1cccc2ccc(-c3cccc(C(F)(F)F)c3)nc12 [Compound 320]
A (Fold activation >200%) | A (EC1.5<1.0 uM) | O=C(Nc1ccnc(N2CCOCC2)c1)c1cccc2ccc(-c3cccc(C(F)(F)F)c3)nc12 [Compound 321]

Further lines, the molecule ahead of its results:

Structure (SMILES) | % Fold Act. (percent maximum fold activation) | EC1.5 (concentration of test compound that results in 150% activation of SIRT1)
O=C(Nc1ncnc2ccc(-c3cccc(C(F)(F)F)c3)nc12)c1cncs1 [Compound 300] | A (Fold activation >200%) | B (EC1.5 1-25 uM)
O=C(Nc1ncnc2ccc(-c3cccc(OC(F)(F)F)c3)nc12)c1cscn1 [Compound 301] | A (Fold activation >200%) | A (EC1.5<1.0 uM)
O=C(Nc1ccc(CN2CCCC2)cn1)c1cccc2ccc(-c3cccc(C(F)F)c3)nc12 [Compound 302] | A (Fold activation >200%) | A (EC1.5<1.0 uM)
O=C(Nc1cccnc1)c1cccc2ccc(-c3ccnc(C(F)F)c3)nc12 [Compound 305] | A (Fold activation >200%) | A (EC1.5<1.0 uM)
O=C(Nc1cccc(CN2CCOCC2)n1)c1cccc2ccc(-c3ccnc(C(F)F)c3)nc12 [Compound 306] | A (Fold activation >200%) | A (EC1.5<1.0 uM)
O=C(Nc1ccncn1)c1cccc2ccc(-c3ccnc(C(F)F)c3)nc12 [Compound 308] | A (Fold activation >200%) | A (EC1.5<1.0 uM)
O=C(Nc1ncnc2ccc(-c3cccc(OC(F)(F)F)c3)nc12)c1cncs1 [Compound 309] | A (Fold activation >200%) | B (EC1.5 1-25 uM)
O=C(Nc1ncnc2ccc(-c3cccc(C(F)(F)F)c3)nc12)c1ccccn1 [Compound 310] | A (Fold activation >200%) | A (EC1.5<1.0 uM)
O=C(Nc1ncnc2ccc(-c3cccc(C(F)(F)F)c3)nc12)c1cccnc1 [Compound 311] | A (Fold activation >200%) | B (EC1.5 1-25 uM)
Cc1csc(NC(=O)c2cccc3cnc(-c4cccc(N5CCOCC5)c4)nc23)n1 [Compound 313] | A (Fold activation >200%) | A (EC1.5<1.0 uM)
O=C(Nc1cccc2ccc(-c3cccnc3)nc12)c1cccc(OCCN2CCOCC2)c1 [Compound 317] | A (Fold activation >200%) | B (EC1.5 1-25 uM)
O=C(Nc1cccc2ccc(-c3cccc(C(F)(F)F)c3)nc12)c1cccc(OCCN2CCOCC2)c1 [Compound 318] |  | C (EC1.5>25 uM)
O=C(Nc1cccc(N2CCOCC2)n1)c1cccc2ccc(-c3cccc(C(F)(F)F)c3)nc12 [Compound 319] | A (Fold activation >200%) | A (EC1.5<1.0 uM)
O=C(Nc1ccnc(N2CCCC2)c1)c1cccc2ccc(-c3cccc(C(F)(F)F)c3)nc12 [Compound 322] | A (Fold activation >200%) | A (EC1.5<1.0 uM)
